Laboratory results reported in US20020082452A1, “alpha-sulfin-and alpha-sulfonamino acid amides” (priority 1998, published 2002).

Legend:
Phytophthora [1] = assay: D-2: Action against Phytophthora on tomato plants (residual-protective and systemic action); assay type: in vivo; settings: spray mixture 0.02% active ingredient (sprayed or watered), evaluated after 4-5 days at 90-100% relative humidity and 20° C.
Procedure: D-2: Action Against Phytophthora on Tomato Plants
(§1) a) Residual-Protective Action
(§2) After a cultivation period of 3 weeks, tomato plants are sprayed with a spray mixture (0.02% active ingredient) prepared from a wettable powder formulation of the test compound. After 48 hours, the treated plants are infected with a sporangia suspension of the fungus. Fungus infestation is evaluated after incubation of the infected plants for 5 days at 90-100% relative humidity and 20° C.
as §2, with “watered” for “sprayed”, “ingredient based on the volume of the soil)” for “ingredient)”, “compound. […]” for “compound.”, “96” for “48”, “4” for “5”, “C. […] Compounds A1.02, A1.03, A1.04, A1.03, A1.05, A1.06, A1.07, A1.09, A1.10, A1.13, A1.14, A1.15, A1.16, A1.21, A1.23.” for “C.”

Phytophthora [2] = assay: D-3: Action against Phytophthora on potato plants (residual-protective and systemic action); assay type: in vivo; settings: potato plants (Bintje variety), spray mixture 0.02% active ingredient (sprayed or watered), evaluated after 4 days at 90-100% relative humidity and 20° C.
Procedure: D-3 Action Against Phytophthora on Potato Plants
as §1
(§3) 2-3 week old potato plants (Bintje variety) are sprayed with a spray mixture (0.02% active ingredient) prepared from a wettable powder formulation of the test compound. After 48 hours, the treated plants are infected with a sporangia suspension of the fungus. Fungus infestation is evaluated after incubation of the infected plants for 4 days at 90-100% relative humidity and 20° C.
as §3, with “watered” for “sprayed”, “ingredient based on the volume of the soil)” for “ingredient)”, “compound. […]” for “compound.”, “C. Fungal infestation is effectively controlled with compounds of Tables 1 to 37. Compounds A1.02, A1.03, A1.04, A1.03, A1.05, A1.06, A1.07, A1.09, A1.10, A1.13, A1.14, A1.15, A1.16, A1.21, A1.23.” for “C.”

Plasmopara viticola = assay: D-1: Action against Plasmopara viticola on vines (residual-protective and residual-curative action); assay type: in vivo; settings: vine seedlings, spray mixture 0.02% active ingredient, evaluated after 6 days at 95-100% relative humidity and 20° C.
Procedure: D-1: Action against Plasmopara viticola on Vines a) Residual-Protective Action
Vine seedlings are sprayed at the 4- to 5-leaf stage with a spray mixture (0.02% active ingredient) prepared from a wettable powder formulation of the test compound. After 24 hours, the treated plants are infected with a sporangia suspension of the fungus. Fungus infestation is evaluated after incubation for 6 days at 95-100% relative humidity and 20° C. […]
b) Residual-Curative Action
Vine seedlings are infected at the 4- to 5-leaf stage with a sporangia suspension of the fungus. After incubation for 24 hours in a humidity chamber at 95-100% relative humidity and 20° C., the infected plants are dried and sprayed with a spray mixture (0.02% active ingredient) prepared from a wettable powder formulation of the test compound. After the spray coating has dried, the treated plants are placed in the humidity chamber again. Fungus infestation is evaluated 6 days after infection. […] Compounds A1.02, A1.03, A1.04, A1.03, A1.5, A1.06, A1.07, A1.09, A1.10, A1.13, A1.14, A1.15, A1.16, A1.21, A1.23.

CCS(=O)(=O)N[C@H](C(=O)NCCc1ccc(OCCOc2ccc(F)cc2)c(OC)c1)C(C)C
melting point: 124 to 125 °C

COc1cc(CCNC(=O)[C@@H](NS(C)(=O)=O)C(C)C)ccc1OC/C=C/c1ccc(Br)cc1 [Compound A2.16]
Fungus infestation (Phytophthora [1]): completely inhibit fungal infestation | Fungus infestation (Phytophthora [2]): completely inhibit fungal infestation | Fungus infestation (Plasmopara viticola): completely inhibit fungal infestation

CCS(=O)(=O)N[C@H](C(=O)NCCc1ccc(OC/C=C\c2ccccc2)c(OC)c1)C(C)C [Compound A3.02]
Fungus infestation (Phytophthora [1]): completely inhibit fungal infestation | Fungus infestation (Phytophthora [2]): completely inhibit fungal infestation | Fungus infestation (Plasmopara viticola): completely inhibit fungal infestation

CCS(=O)(=O)N[C@H](C(=O)NCCc1ccc(OC/C=C\c2ccc(Cl)cc2)c(OC)c1)C(C)C [Compound A3.03, Z-(S)-N-(2-{4-[3-(4-Chloro-phenyl)-allyloxy]-3-methoxy-phenyl}-ethyl)-2-ethanesulfonylamino-3-methyl-butyramide]
Fungus infestation (Phytophthora [1]): completely inhibit fungal infestation | Fungus infestation (Phytophthora [2]): completely inhibit fungal infestation | Fungus infestation (Plasmopara viticola): completely inhibit fungal infestation | melting point: 141 to 143 °C
